Key:
Mu-type opioid receptor = Mu-type opioid receptor (Rattus norvegicus, UniProt P33535); test: Compound was evaluated for binding affinity against Opioid receptor mu 1 in rat brain membranes using [125I]-Tyr-D-Ala-Gly-NMePhe-Met; format: cell membranes; conditions: read-out: I50
[1] = target: Delta-type opioid receptor (Rattus norvegicus, UniProt P33533); test: Compound was evaluated for binding affinity against Opioid receptor delta 1 in rat brain membranes using [125I]-D-Ala2-Leu5-enkephalin; format: cell membranes; conditions: read-out: I50
Delta-type opioid receptor, sequence (P33533 whole entry): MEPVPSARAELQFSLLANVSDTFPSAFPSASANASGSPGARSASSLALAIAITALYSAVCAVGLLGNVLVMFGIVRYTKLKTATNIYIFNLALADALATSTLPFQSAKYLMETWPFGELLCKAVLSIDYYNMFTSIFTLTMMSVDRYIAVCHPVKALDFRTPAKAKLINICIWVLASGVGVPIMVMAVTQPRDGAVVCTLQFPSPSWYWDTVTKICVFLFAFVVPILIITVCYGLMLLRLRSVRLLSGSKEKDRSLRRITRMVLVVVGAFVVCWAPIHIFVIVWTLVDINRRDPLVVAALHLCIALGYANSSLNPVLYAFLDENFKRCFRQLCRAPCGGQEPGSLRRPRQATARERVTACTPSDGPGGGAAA

Mu-type opioid receptor, sequence (P33535 whole entry): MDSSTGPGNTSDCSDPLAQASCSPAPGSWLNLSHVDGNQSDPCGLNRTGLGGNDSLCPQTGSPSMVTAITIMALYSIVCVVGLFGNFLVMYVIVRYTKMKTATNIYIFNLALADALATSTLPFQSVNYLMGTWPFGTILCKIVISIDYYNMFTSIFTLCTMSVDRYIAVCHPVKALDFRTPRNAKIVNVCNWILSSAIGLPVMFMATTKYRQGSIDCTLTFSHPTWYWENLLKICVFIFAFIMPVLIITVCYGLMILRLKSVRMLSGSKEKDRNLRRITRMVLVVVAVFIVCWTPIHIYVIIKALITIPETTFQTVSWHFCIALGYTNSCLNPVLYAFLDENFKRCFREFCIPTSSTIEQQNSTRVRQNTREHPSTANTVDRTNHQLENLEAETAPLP

SMILES: CN1CC[C@]23c4c5ccc(O)c4O[C@H]2[C@H](N)CC[C@@]3(O)[C@H]1C5
- IC50 (Mu-type opioid receptor): 9 nM
- IC50 [1]: 110 nM

SMILES: CN1CC[C@]23c4c5ccc(O)c4O[C@H]2[C@@H](N)CC[C@@]3(O)[C@H]1C5
- IC50 (Mu-type opioid receptor): 13 nM
- IC50 [1]: 250 nM
